Source: patent publication US20190225644A1, “MRNA CAP ANALOGS AND METHODS OF MRNA CAPPING” (ModernaTX, Inc., priority 2015, published 2019)
Several values for one entry are separate records, joined by “and”; a condition that tells them apart may be missing. Identical values can stand only once. Like-named read-outs stand apart in the source and are kept apart here.

Assays:
HeLa Lysate [1] = assay: Cell free translation assay, mCitrine mRNA carrying the cap analogs; type: biochemical; details: 5-methoxy uridine modRNA
Procedure: (§1) The in vitro translation assay was conducted with the HeLa 1-step coupled IVT kit (ThermoFisher Scientific, Waltham, Mass.) according to the manufacturer's instructions to assess performance of new cap analogs as free compounds or as an integral part of capped mRNA. Cap analogs with affinity to eIF4E protein may reduce protein synthesis rate in cell-free translation. Further, RNAs containing such cap analogs (“Cap-modRNA”) show different potency of protein synthesis in cell-free translation.
The modified RNAs (“modRNAs”) of eGFP and mCitrine-degron, harboring chemical modifications on either the CAP structures, selected ribose units and/or the bases, were diluted in sterile nuclease-free water to a final amount of 500 ng in 5 uL. This volume was added to 20 uL of freshly prepared HeLa Lysate. The in vitro translation reaction was done in a standard 96-well round bottom plate (Corning, Corning, N.Y.), covered with an self-adhesive fluorescence-compatible seal (BioRad, Hercules, Calif.) at 30° C. inside the plate reader Cytation 3 (BioTek, Winooski, Vt.).
The fluorescent signal per reaction increased over time and is considered proportional to the occurring protein synthesis. Each cell-free translation reaction was monitored for 120-180 min with the following settings: eGFP protein—ex. 485 nm, em. […] 545, gain 70 or 80. The height of the reading head was set to 1 mm above the plate and a reading speed of one per sample every 17 seconds. The results of modRNAs with various caps are illustrated in FIGS. 3A-3B.
(§2) Cell free translation assays were also conducted using modRNAs comprises 5-methoxy uridine, which replaces each uridine in the RNA sequence, except otherwise specified. The results are shown in FIGS. 5A-5B and 6A-6B, and Tables 12 and 13. Table 12 discloses the measured mCitrine levels after 3 hours of a cell-free translation assay.

HeLa Lysate [2] = assay: Cell free translation assay, hEPO mRNA carrying the cap analogs; type: biochemical; details: 5-methoxy uridine modRNA
Procedure: In FIG. 5A, “mod mRNA” refers to a modified mRNA comprising N1-methyl pseudouridine, which replaces each uridine in the RNA sequence. FIG. 5 B presents the results of a cell free translation assay using mRNAs carrying different cap analogs, normalized to capping and concentration of each capped mRNA (see also Table 13).
as §1, §2
Table 13 discloses the hEPO levels after 3 hours of a cell-free translation assay.

T7 RNA Polymerase = T7 RNA Polymerase (Escherichia phage T7, UniProt P00573); assay: Cotranscriptional capping of hEPO mRNA by in vitro transcription (capping fraction); type: biochemical; details: hEPO mRNA used in the in vivo assay
Chain of T7 RNA Polymerase (P00573 whole entry): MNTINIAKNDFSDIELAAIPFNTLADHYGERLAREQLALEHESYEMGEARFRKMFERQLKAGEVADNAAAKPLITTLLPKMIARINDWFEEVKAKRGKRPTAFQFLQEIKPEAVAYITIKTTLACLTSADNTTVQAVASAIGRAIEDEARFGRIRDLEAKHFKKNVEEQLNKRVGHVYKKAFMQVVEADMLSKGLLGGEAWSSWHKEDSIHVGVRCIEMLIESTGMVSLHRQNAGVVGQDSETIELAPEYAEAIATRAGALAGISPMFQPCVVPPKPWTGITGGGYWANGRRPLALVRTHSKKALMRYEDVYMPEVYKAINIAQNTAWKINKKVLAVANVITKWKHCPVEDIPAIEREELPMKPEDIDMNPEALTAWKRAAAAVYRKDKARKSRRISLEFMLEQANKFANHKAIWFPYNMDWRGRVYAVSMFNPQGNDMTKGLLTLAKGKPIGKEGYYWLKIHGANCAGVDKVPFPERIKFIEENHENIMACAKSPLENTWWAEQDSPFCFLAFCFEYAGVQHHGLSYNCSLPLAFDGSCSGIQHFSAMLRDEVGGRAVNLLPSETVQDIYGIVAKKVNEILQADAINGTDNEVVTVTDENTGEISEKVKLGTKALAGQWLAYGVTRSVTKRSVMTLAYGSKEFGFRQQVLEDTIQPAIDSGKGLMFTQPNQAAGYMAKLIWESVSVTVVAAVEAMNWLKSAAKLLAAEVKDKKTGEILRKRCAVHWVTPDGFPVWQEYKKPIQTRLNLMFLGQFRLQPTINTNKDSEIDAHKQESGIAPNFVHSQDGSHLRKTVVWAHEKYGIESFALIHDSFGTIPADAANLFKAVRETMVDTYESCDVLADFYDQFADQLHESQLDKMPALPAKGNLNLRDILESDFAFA

eIF4E [3] = biological target: T1, eIF4E (Homo sapiens, UniProt P06730); assay: biochemical
T1 sequence (P06730 32-217): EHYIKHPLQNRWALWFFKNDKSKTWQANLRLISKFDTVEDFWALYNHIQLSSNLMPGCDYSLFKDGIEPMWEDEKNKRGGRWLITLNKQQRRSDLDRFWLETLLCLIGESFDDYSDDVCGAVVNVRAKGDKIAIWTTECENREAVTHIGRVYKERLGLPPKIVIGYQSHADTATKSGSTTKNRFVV

eIF4E [4] = biological target: T1, eIF4E; assay: Binding affinities to eIF4E using surface plasmon resonance (SPR)
[5] = test system: human primary hepatocytes; assay: Cell-based expression in human primary hepatocytes of mRNAs carrying the cap analogs; details: mRNA carrying the cap, 5-methoxy uridine; 008-7 Cap0-like, all other caps Cap1-like
CD-1 mice = assay: In vivo expression assay, hEPO mRNA in MC3-based LNP; details: iv bolus 0.05 mg/kg, 6 h after injection, 008-7 Cap0-like, others Cap1-like
Procedure: mRNAs encoding hEPO were synthesized according to the method described in Example 2 above, co-transcriptionally incorporating cap analogs of the disclosure. […] A MC3-based lipid nanoparticle (LNP) formulation of the synthesized mRNA was produced, and was intravenously administered to CD-1 mice (n=3) at a bolus dose of 0.05 mg/kg. The level of hEPO was tested at 6 h, 24 h, or 48 h after injection.

eIF4E [6] = biological target: T1, eIF4E
HeLa Lysate [7] = assay: Cap competition assay in kinetic cell free in vitro translation (free cap analogs); type: biochemical; details: free cap analog 0-100 uM against Cap1-tipped eGFP modRNA, fluorescence plateau
Procedure: as §1
For competition assays, the total volume of the cell-free translation reaction was increased to 27.8 uL by addition of either water or diluted free CAP analogs in water. The stock concentration of the free CAP analogs was 1 mM. With two-fold dilutions in water, the concentration was reduced sequentially. […] The CAP analogs used in this study were either commercial products serving as reference material (TriLink, San Diego, Calif.) or compounds disclosed herein. It is hypothesized that the small molecule cap analogs interfere with the assembly of the “closed loop” in a Kd-dependent fashion.
After the fluorescent signal in cell-free translation reaction reached a stable plateau, absolute values thereof were transferred to a statistical analysis program (GraphPad Software, La Jolla, Calif.) and curve fitting or IC50 calculations were derived with settings according to the instructions of the manufacturer.
The results from the cap competition assays are illustrated in FIGS. 1A-1C and 2A-2D. In this study, each of the modRNAs used comprises 1-methyl-pseudouridine, which replaces each uridine in the RNA sequence and 5-methyl cytidine, which replaces each cytidine in the RNA sequence. Further, Table 11 includes the IC50 values of certain compounds of the disclosure.

[8] = residence time as listed in Table 12
[9] = residence time as listed in Table 13

Row | IC50 (HeLa Lysate [7]) [µM] | SMILES | Ave norm (mCitrine levels after 3 hours of a cell-free translation assay) (HeLa Lysate [1]) | CFT (norm to conc. & capping & cap1), hEPO levels after 3 hours of a cell-free translation assay (HeLa Lysate [2]) | capping %/100 (T7 RNA Polymerase) | Kd (eIF4E [3]) | koff (eIF4E [6]) [s⁻¹] | τ (eIF4E [4]; [9]) [s] | τ (eIF4E [4]; [8]) [s] | further results
1 | – | CO[C@@H]1[C@H](O)[C@@H](COP(=O)(O)OP(=O)([S-])OP(=O)(O)OC[C@H]2O[C@@H](n3cnc4c(=O)[nH]c(N)nc43)[C@H](O)[C@@H]2O)O[C@H]1n1c[n+](C)c2c(=O)[nH]c(N)nc21 (single isomer, unassigned) [Compound 005-30 (D1)] | 0.44 (D1); | 0.79 (D1) | 0.65 (D1) %/100 | 0.7 µM | – | – | – | τ (s) (eIF4E [4]; [8]): 15 (D1); s; τ (s) (eIF4E [4]; [9]): 14.9 (D1) s
2 | – | CO[C@@H]1[C@H](O)[C@@H](COP(=O)(O)OP(=O)([S-])OP(=O)(O)OC[C@H]2O[C@@H](n3cnc4c(=O)[nH]c(N)nc43)[C@H](O)[C@@H]2O)O[C@H]1n1c[n+](C)c2c(=O)[nH]c(N)nc21 (single isomer, unassigned) [Compound 005-30 (D2)] | 0.84 (D2) | 1.66 (D2) | 0.71 (D2) %/100 | 1.1 µM | – | – | – | τ (s) (eIF4E [4]; [8]): 10 (D2) s; τ (s) (eIF4E [4]; [9]): 10.4 (D2) s
3 | – | CO[C@H]1[C@@H](O)[C@H](n2c[n+](C)c3c(=O)[nH]c(N)nc32)O[C@@H]1COP(=O)(O)OP(=O)(O)OP(=O)(O)OC[C@H]1O[C@@H](n2cnc3c(=O)[nH]c(N)nc32)[C@H](O)[C@@H]1O [ARCA, m7(3′-Om)GpppG, reference compound] | – | 1.93 | 0.86 %/100 | – | 1.67 | 0.6 | – | h-primHeps norm to Capping and Cap1 [5]: 1.52; in vivo hEPO normalized to capping and Cap1 (CD-1 mice): 0.70; Kd (eIF4E [6]): 2 to 3 µM
4 | – | CO[C@@H]1[C@H](O)[C@@H](COP(=O)(O)OP(=O)(O)OP(=O)(O)OC[C@H]2O[C@@H]([n+]3cn(C)c4c(=O)[nH]c(N)nc43)[C@H](O)[C@@H]2O)O[C@H]1n1cnc2c(=O)[nH]c(N)nc21 [Cap1, m7GpppG(2′-Om), reference compound] | 0.30 | 1.00 | 1 %/100 | – | 0.77 | 1.3 | 1.3 | h-primHeps norm to Capping and Cap1 [5]: 1.00; in vivo hEPO normalized to capping and Cap1 (CD-1 mice): 1.00; Kd (eIF4E [6]): 3 µM
5 | 21 | COCCO[C@H]1[C@H](O)[C@@H](COP(=O)(O)OP(=O)([O-])OP(=O)(O)OC[C@H]2O[C@@H](n3cnc4c(=O)[nH]c(N)nc43)[C@H](O)[C@@H]2O)O[C@H]1n1c[n+](C)c2c(=O)[nH]c(N)nc21 [Compound 005-12] | – | – | – | 4.3 µM and 4 µM | 0.9 | – | – | –
6 | 48 | CO[C@@H]1[C@H](O)[C@@H](COP(=O)(O)OP(=O)([O-])OP(=O)(O)OC[C@H]2O[C@@H](n3cnc4c(=O)[nH]c(N)nc43)[C@H](O)[C@@H]2O)O[C@H]1n1c[n+](C)c2c(=O)[nH]c(N)nc21 [Compound 005-14] | – | – | – | 6.4 µM and 4 µM | 1.7 | – | – | –
7 | – | COCCO[C@@H]1[C@H](O)[C@@H](COP(=O)(O)OP(=O)([S-])OP(=O)(O)OC[C@H]2O[C@@H](n3cnc4c(=O)[nH]c(N)nc43)[C@H](O)[C@@H]2O)O[C@H]1n1c[n+](CCOc2ccc(Cl)cc2)c2c(=O)[nH]c(N)nc21 (stereo partly drawn) [Compound 005-34] | 2.51 | 2.71 | 0.94 %/100 | 0.01 µM | 0.02 | 50 | 50 | –
8 | – | Nc1nc2c(ncn2[C@@H]2O[C@H](COP(=O)(O)OP(=O)([O-])OP(=O)(O)OC[C@H]3O[C@@H](n4c[n+](CCOc5ccc(Cl)cc5)c5c(=O)[nH]c(N)nc54)[C@@H](O)[C@@H]3O)[C@@H](O)[C@H]2O)c(=O)[nH]1 [Compound 005-35] | – | 1.02 | 1 %/100 | – | – | 9.1 | – | –
9 | 33 | C[n+]1cn([C@H]2CN(CCO)C[C@@H](COP(=O)([O-])OP(=O)(O)OP(=O)(O)OC[C@H]3O[C@@H](n4cnc5c(=O)[nH]c(N)nc54)[C@H](O)[C@@H]3O)O2)c2nc(N)[nH]c(=O)c21 [Compound 006-3] | – | – | – | 8 to 9 µM and 9 µM | 0.6 | – | – | –
10 | – | COc1ccc(CN2CC(COP(=O)([O-])OP(=O)(O)OP(=O)(O)OCC3OC(n4cnc5c(=O)[nH]c(N)nc54)C(O)C3O)OC(n3c[n+](C)c4c(=O)[nH]c(N)nc43)C2)cc1 (stereo not drawn) [Compound 006-26] | 0.50 | – | – | – | – | – | 3.3 | –
11 | – | CN(C)CCN1CC(COP(=O)(O)OP(=O)([O-])OP(=O)(O)OC[C@H]2O[C@@H](n3cnc4c(=O)[nH]c(N)nc43)[C@H](O)[C@@H]2O)OC(n2c[n+](C)c3c(=O)[nH]c(N)nc32)C1 (stereo partly drawn) [Compound 006-44] | 0.31 | – | – | – | – | – | 0.8 | –
12 | – | CN1CC(COP(=O)(O)OP(=O)([O-])OP(=O)(O)OC[C@H]2O[C@@H](n3cnc4c(=O)[nH]c(N)nc43)[C@H](O)[C@@H]2O)OC(n2c[n+](CCOc3ccc(Cl)cc3)c3c(=O)[nH]c(N)nc32)C1 (stereo partly drawn) [Compound 006-45] | 0.74 | 0.48 | 0.95 %/100 | – | – | 11.6 | 11.6 | –
13 | – | C[n+]1cn(C2CN(Cc3ccccc3)CC(COP(=O)(O)OP(=O)([S-])OP(=O)(O)OC[C@H]3O[C@@H](n4cnc5c(=O)[nH]c(N)nc54)[C@H](O)[C@@H]3O)O2)c2nc(N)[nH]c(=O)c21 (stereo partly drawn) [Compound 006-46] | 0.77 | – | – | – | – | – | 3.4 | –
14 | 179 | C[n+]1cn([C@@H]2O[C@H](COP(=O)(O)OP(=O)(O)OP(=O)(O)OC[C@H]3O[C@@H](n4cnc5c(=O)[nH]c(N)nc54)[C@H](O)[C@@H]3O)[C@@H](O)[C@@]2(C)O)c2nc(N)[nH]c(=O)c21 [Compound 007-1] | – | – | – | 11 µM | 1 | – | – | –

Row | SMILES | IC50 (HeLa Lysate [7]) [µM] | Ave norm (mCitrine levels after 3 hours of a cell-free translation assay) (HeLa Lysate [1]) | CFT (norm to conc. & capping & cap1), hEPO levels after 3 hours of a cell-free translation assay (HeLa Lysate [2]) | capping %/100 (T7 RNA Polymerase) | Kd (eIF4E [3]) | koff (eIF4E [6]) [s⁻¹] | τ (eIF4E [4]; [9]) [s] | τ (eIF4E [4]; [8]) [s] | further results
15 | BP(=O)(OP(=O)([O-])OC[C@H]1O[C@@H](n2c[n+](C)c3c(=O)[nH]c(N)nc32)[C@H](O)[C@@H]1O)OP(=O)([O-])OC[C@H]1O[C@@H](n2c[n+](C)c3c(=O)[nH]c(N)nc32)[C@H](O)[C@@H]1O [Compound 005-4] | 5 | 0.24 | – | – | 0.7 to 1 µM and 1 µM | – | – | – | τ (eIF4E [4]): 4.17 s and 4.2 s; koff (eIF4E [4]; read-out: koff (s^−1)): 0.24 s⁻¹
16 | C[n+]1cn([C@@H]2O[C@H](COP(=O)([O-])OP(=O)([O-])OP(=O)(O)OC[C@H]3O[C@@H](n4c[n+](C)c5c(=O)[nH]c(N)nc54)[C@H](O)[C@@H]3O)[C@@H](O)[C@H]2O)c2nc(N)[nH]c(=O)c21 [Compound 005-10] | 14 | – | 0.83 | 0.91 %/100 | 2.7 µM and 3 µM | 0.26 | 3.8 | – | –
